Laboratory results as given in US6287787A, “Dimeric oligopeptide mixture sets” (Torrey Pines Institute for Molecular Studies, priority 1993, dated 2001).
Where a SMILES comes first, the peptide text is derived from it. Bridges are numbered along the chain shown (N, C = ends). Roman numbers before positions name the chains, in order. [ ]: non-standard residue; d: D form. Met(O) = CS(=O)CC[C@H](N)C(=O)O

Target: T1, trypsin (bovine pancreas trypsin, Type I) (Bos taurus, UniProt P00760)
T1 construct: purchased Sigma Chemicals T 8003; host or cells: bovine pancreas
T1 sequence (P00760 24-246): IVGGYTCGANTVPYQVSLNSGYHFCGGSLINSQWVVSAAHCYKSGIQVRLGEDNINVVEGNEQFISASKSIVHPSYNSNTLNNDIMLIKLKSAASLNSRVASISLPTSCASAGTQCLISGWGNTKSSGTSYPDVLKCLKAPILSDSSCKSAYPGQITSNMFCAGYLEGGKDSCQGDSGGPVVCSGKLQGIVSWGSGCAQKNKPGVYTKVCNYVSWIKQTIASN
Test: Competitive inhibition of tryptic hydrolysis of Nα-benzoyl-D,L-arginine-p-nitroanilide
Type: biochemical
Protocol: The inhibition observed was 55 percent at 5 mg/ml.
For these assays, 50 μl of dimeric oligopeptide mixture set solutions in water (0.5-5 mM) were added to 0.1 M Tris-HCl containing 0.025 M CaCl2, pH 7.8 (100 μl), to which were added 15 μl of trypsin (bovine pancreas trypsin, Type I; Sigma Chemicals T 8003; 0.05 mg/ml in 0.02 N HCl ). The solution was maintained for 30 minutes, and the above substrate (N^α -benzoyl-D,L-arginine-p-nitroanitide) was added (100 μl, 1 mg/ml in water). Absorbances at 405 nm were read using a Titertek multichannel photometer after another 30 minutes had elapsed and were expressed as a percentage of the control (absorbance of a solution without peptide).

IC50: 53 µM
SMILES: CC(=O)N[C@@H](CC[S+](C)[O-])C(=O)N[C@@H](CSSC[C@H](NC(=O)[C@H](CC[S+](C)[O-])NC(C)=O)C(=O)N[C@@H](Cc1c[nH]c2ccccc12)C(=O)N[C@@H](CCCNC(=N)N)C(N)=O)C(=O)N[C@@H](Cc1c[nH]c2ccccc12)C(=O)N[C@@H](CCCNC(=N)N)C(N)=O (stereo partly shown) [SEQ ID NO:4] (I: Ac-[Met(O)]CWR-NH2 / II: Ac-[Met(O)]CWR-NH2; disulfide I:2-II:2)
